Assay results taken from patent US20250244419A1, “INFUSION DEVICE FOR THE PREPARATION AND DELIVERY OF MRI PROBES” (The United States of America, as represented by the …, priority 2022, published 2025).

Experiment: Relaxation dynamics of hyperpolarized [1-13C]pyruvate (build-up time Tb, T1)
Assay type: physicochemical
Conditions: for corresponding T1 value: same conditions as build-up
Description: In addition, the relaxation dynamics of the [1-^13C]pyruvate were also studied.
In addition, relaxation dynamics at earth field and 1.8 T are about the same as a non-fluorinated SABRE catalyst T1=28.9±1.6 s and 66.5±7 s, respectively.
In addition, relaxation dynamics at earth field and 1.8 T are about the same as a non-fluorinated SABRE catalyst T1=9.0±1.9 s and 16.0±1.4 s, respectively.

[1] = NFBME / deuterated methanol mixture, catalyst of Example 4
[2] = methanol, catalyst of Example 4, DMSO co-ligand

C[13C](=O)C(=O)O [[1-^13C]pyruvate, Sodium [1-^13C]-pyruvate]
T1 at 1.8 T [1]: 16.0 ± 1.4 s
T1 at earth field [1]: 9.0 ± 1.9 s
corresponding T1 value [1]: 11.3 ± 1.3 s
T1 at 1.8 T [2]: 66.5 ± 7 s
T1 at earth field [2]: 28.9 ± 1.6 s
corresponding T1 value [2]: 16.1 ± 0.9 s
